Measurements: ChEMBL document CHEMBL3751825, “Synthesis and protective effect of new ligustrazine derivatives against CoCl2-induced neurotoxicity in differentiated PC12 cells. Part 2” (Medchemcomm, 2015)
pEC50: −log10 of the molar value.

Experiment: Neuroprotective activity against cobalt chloride-induced neurotoxicity in rat differentiated PC12 cells
Type: functional, cell-based
Details: pc-12

| SMILES | pEC50 |
| --- | --- |
| C=CCc1ccc(OCc2nc(C)c(C)nc2C)c(OC)c1 | 5.34 |
| COc1ccc(C(C)=O)c(OCc2nc(C)c(C)nc2C)c1 | > 4.82 |
| COc1cccc(/C=C/C(=O)OCc2nc(C)c(C)nc2C)c1 | > 4.62 |
| COc1cc(/C=C/C(=O)OCc2nc(C)c(C)nc2C)cc(OC)c1OC | > 4.62 |
| COc1ccc(/C=C/C(=O)OCc2nc(C)c(C)nc2C)cc1OC | > 4.62 |
| COc1cccc(/C=C/C(=O)OCc2nc(C)c(C)nc2C)c1OC | > 4.62 |
| Cc1nc(C)c(COC(=O)c2cc(OCc3nc(C)c(C)nc3C)c(OCc3nc(C)c(C)nc3C)c(OCc3nc(C)c(C)nc3C)c2)nc1C | < 4.00 |
| COc1ccccc1/C=C/C(=O)OCc1nc(C)c(C)nc1C | > 4.62 |
| COc1ccc(OC)c(/C=C/C(=O)OCc2nc(C)c(C)nc2C)c1 | > 4.62 |
| COc1ccc(/C=C/C(=O)OCc2nc(C)c(C)nc2C)c(OC)c1OC | 6.14 |
| COc1ccc(/C=C/C(=O)OCc2nc(C)c(C)nc2C)cc1 | > 4.62 |

Experiment: Neuroprotective activity against cobalt chloride-induced neurotoxicity in rat NGF-differentiated PC12 cells assessed as increase of neurite-bearing cell level at 60 uM after 12 hrs
Details: not given

| SMILES | Activity [%] |
| --- | --- |
| COc1ccc(/C=C/C(=O)OCc2nc(C)c(C)nc2C)c(OC)c1OC | 50.8 |
